Results reported in article PMC5729604, “Dual inhibitors of hepatitis C virus and hepatocellular carcinoma: design, synthesis and docking studies” (Future Science OA, 2017).
“Also recorded” adds a separate entry of the source.

Legend:
[1] = system: HepG2 cells infected with hepatitis C virus; assay: In vitro anti-HCV screening, qualitative RT-PCR of viral RNA; format: cell-based, HCV genotype-4; conditions: for Result (anti-HCV screening): at the used dose (below LD0 on HepG2 and PBMCs), 72 h, Positive = disappearance of viral RNA-amplified product (174 bp)
From the text: The safe compounds on RBCs (5a-g, 5i-l, 5p-r, 5v-w, 6b-g) were screened for their in vitro anti-HCV activity using the HCC HepG2 cell line infected with the HCV. Monitoring of the HCV viremia pre- and post-antiviral therapy through the detection of viral RNA using qualitative reverse transcription-PCR (RT-PCR) was adopted in the present investigation. This technique was reported to be the most frequently used, reliable and sensitive technique. Inhibition of viral replication was detected by amplification of viral RNA segments by the RT-PCR technique both in the cultivated infected cells alone (as a positive control) and at the specified dose for each test compound at optimal temperature. The test compound was considered to be active when it can inhibit the viral replication inside the HCV-infected HepG2 cells, as evidenced by the disappearance of the viral RNA-amplified products detected by the RT-PCR (compared with positive control).
The used concentration of each compound was chosen to be lower than the LD0 on HepG2 cells. Therefore, 100% viability of HepG2 cells was maintained, to make sure that any inhibitory effect was due to anti-HCV activity rather than cytotoxic activity on HepG2 cells. Moreover, the used concentrations were also chosen to be lower than the LD0 on PBMCs. Consequently, these doses could be used for inhibition of HCV in normal cells infected with the virus.
HepG2 cells were washed twice in RPMI-1640 medium supplemented with 200 μM L-glutamine and […] HEPES buffer. The cells were suspended at 12 × 10^4 cells/ml in RPMI culture medium (RPMI supplemented medium and 10% FBS). The appropriate number of cells to be used was chosen to be 12 × 10^3 cells/well (100 μl of the prepared suspension), and the cells were left to adhere on the polystyrene […] plates in an incubator at 37°C, 5% CO2 and 95% humidity for 24 h. The cells were washed once using RPMI supplemented medium, then infected with 2% HCV-infected serum (the used serum was a pole of ten patients infected with HCV genotype-4 with viral loads: 3.2–9 million IU/ml, G4 HCV RNA) in RPMI culture medium containing 8% FBS. The used dose of each compound was chosen so as to maintain 100% viability of the HepG2 cell line (the dose was lower than the LD0 of each compound on HepG2 cells as calculated from the in vitro anticancer screening). It was reported that, cultured HepG2 cells lost their biotransformation activity due to decrease in cytochrome (CYP) transcription. This waived its effect on the compounds stability during the test. Negative control is HepG2 cells with culture medium without addition of HCV infected serum or addition of tested compounds. Positive control is HepG2 cells with culture medium and infected HCV serum but without addition of tested compounds. After addition of the compounds, the plates were incubated at 37°C, 5% CO2 and 95% humidity for 72 h, followed by RNA extraction. The RNA strand was detected by RT-PCR using HCV-specific primers to the […] region of the virus.
RNA was extracted from HepG2 cells using the method described by El-Awady et al.. Culture cells were mixed with 200 μl of 4 mol/l guanidinium isothiocyanate (Fischer Bioreagents) containing 25 mmol/l sodium citrate (MP Biomedicals, CA, USA), 0.5% sarkosyl (Fischer Bioreagents), 0.1 mol/l β-mercaptoethanol (MP Biomedicals), and 100 μl sodium acetate (Merck). The lysed cells were mixed with an equal volume of phenol, chloroform and isoamyl alcohol (25:24:1, pH 4; Fischer Bioreagents). After vortexing, the mixture was centrifuged (14,000 r.p.m. for 10 min) at 4°C. The aqueous layer was collected and mixed with an equal volume of isopropanol (Acros Organics, Geel, Belgium). After incubation at -20°C overnight, RNA was precipitated by centrifugation (14,000 r.p.m. for 30 min) at 4°C, and the precipitated RNA was washed twice with 70% ethanol. […]

[2] = In vitro hemolytic assay; format: cell-based; conditions: 2% erythrocyte suspension (washed red blood cells); 2% erythrocyte suspension, 3 μl of 1 mg/ml compound in DMF per 240 μl well, 37°C 30 min, absorbance 405 nm; <5% considered nontoxic
Procedure: Compounds 5a-x and 6a-h were subjected to the in vitro hemolytic assay to identify those which cause hemolysis to red blood cells (RBCs). Consequently, these compounds would be toxic in vivo so they were excluded from further biological screening.
Blood samples (5 ml) were freshly collected into heparinized tubes and were centrifuged (1000 r.p.m. for 20 min) at room temperature. The plasma and buffy coat were removed by Pasteur pipette, and the collected erythrocytes were washed three-times using isotonic buffer solution (0.9% sodium chloride [Sigma-Aldrich, MO, USA]) by centrifugation (2500 r.p.m. for 10 min). A two percent erythrocyte suspension was prepared to be used in the assay.
A 1 mg/ml stock solution of each compound was prepared in DMF (Sigma-Aldrich). Compound wells were prepared by adding 3 μl of the compound solution to 117 μl isotonic buffer solution and 120 μl erythrocyte suspension. Compounds color blank wells were prepared by adding 3 μl compound to 237 μl isotonic buffer solution. Solvent (DMF) wells were prepared by adding 3 μl DMF to 117 μl isotonic buffer solution and 120 μl erythrocyte suspension. Positive control wells (representing 100% hemolysis) were prepared by adding 120 μl erythrocyte suspension to 120 μl distilled water, while negative control wells (representing 0% hemolysis) were prepared by adding 120 μl erythrocyte suspension to 120 μl isotonic buffer solution. Finally, blank wells contained only 240 μl isotonic buffer solution. Each set of samples was pipetted in triplicate. The microtiter plate was then shaken well on bench, incubated at 37°C for 30 min then centrifuged (2000 rpm for 5 min) at room temperature.
A fraction of the supernatant layer (150 μl) of each well was transferred to another 96-well microtiter plate. Erythrocyte hemolysis was determined by reading the absorbance (A) of liberated hemoglobin at 405 nm in the supernatant fraction compared with the 100% hemolysis of erythrocyte. The average value was calculated from triplicate assay: [drawing 2]

Row | SMILES | in vitro anti-HCV activity, in words ([1]; HCV-infected HepG2 cells, RT-PCR) | Result (anti-HCV screening) [1] | hemolysis at 30 min, 12.5 µg/ml [2]
1 | CC(=NN=C1SC(=Cc2cn(-c3ccccc3)nc2-c2ccccc2)C(=O)N1C1CCCCC1)c1nc2ccccc2[nH]1 [Compound 5v, 2-[1-(1H-Benzimidazole-2-yl)ethylidenehydrazono]-5-[(1,3-Diphenyl-1H-pyrazol-4-yl)methylene]-3-cyclohexylthiazolidin-4-one] | showed in vitro anti-HCV activity; also recorded: exhibited in vitro anti-HCV activity | Positive | 3.66%
2 | CC(=NN=C1SC(=Cc2cn(-c3ccccc3)nc2-c2ccc(Cl)cc2)C(=O)N1C1CCCCC1)c1nc2ccccc2[nH]1 [Compound 5w, 2-[1-(1H-Benzimidazole-2-yl)ethylidenehydrazono]-5-{[3-(4-chlorophenyl)-1-phenyl-1H-pyrazol-4-yl]methylene}-3-cyclohexylthiazolidin-4-one] | – | Negative | 3.53%
3 | CC(=NN=C1SC(=C2C(=O)Nc3ccccc32)C(=O)N1c1ccc(Cl)cc1)c1cc2ccccc2o1 [Compound 6b, 2-[1-(Benzofuran-2-yl)ethylidenehydrazono]-5-(2-oxoindolin-3-ylidene)-3-(4-chlorophenyl)thiazolidin-4-one] | – | Negative | 3.08%
4 | COc1ccc(N2C(=O)C(=C3C(=O)Nc4ccccc43)SC2=NN=C(C)c2cc3ccccc3o2)cc1 [Compound 6c, 2-[1-(Benzofuran-2-yl)ethylidenehydrazono]-5-(2-oxoindolin-3-ylidene)-3-(4-methoxyphenyl)thiazolidin-4-one] | – | Negative | 4.02%
5 | CC(=NN=C1SC(=C2C(=O)Nc3ccccc32)C(=O)N1C1CCCCC1)c1cc2ccccc2o1 [Compound 6d, 2-[1-(Benzofuran-2-yl)ethylidenehydrazono]-5-(2-oxoindolin-3-ylidene)-3-cyclohexylthiazolidin-4-one] | – | Negative | 1.31%
6 | CC(=NN=C1SC(=C2C(=O)Nc3ccccc32)C(=O)N1c1ccccc1)c1nc2ccccc2[nH]1 [Compound 6e, 2-[1-(1H-Benzimidazole-2-yl)ethylidenehydrazono]-5-(2-oxoindolin-3-ylidene)-3-phenylthiazolidin-4-one] | – | Negative | 4.51%
7 | CC(=NN=C1SC(=C2C(=O)Nc3ccccc32)C(=O)N1c1ccc(Cl)cc1)c1nc2ccccc2[nH]1 [Compound 6f, 2-[1-(1H-Benzimidazole-2-yl)ethylidenehydrazono]-5-(2-oxoindolin-3-ylidene)-3-(4-chlorophenyl)thiazolidin-4-one] | – | Negative | 1.01%
8 | COc1ccc(N2C(=O)C(=C3C(=O)Nc4ccccc43)SC2=NN=C(C)c2nc3ccccc3[nH]2)cc1 [Compound 6g, 2-[1-(1H-Benzimidazole-2-yl)ethylidenehydrazono]-5-(2-oxoindolin-3-ylidene)-3-(4-methoxyphenyl)thiazolidin-4-one] | – | Negative | 2.65%
